The values that follow come from patent US20230109833A1, “METABOLICALLY STABLE N-ACYLAMINOOXADIAZOLES USEFUL AS ANTIBACTERIAL AGENTS” (MICROBIOTIX, INC., priority 2017, published 2023).

Values after ≈ are worked out from the molar mass of the structure shown. “Also recorded” adds a separate entry of the source. Like-named read-outs stand apart in the source and are kept apart here.

One data set relates to N. gonorrhoeae. The data set can be described thus: MIC (Table 2B). Type of data set: cell-based. The conditions noted are these: Neisseria gonorrhoeae, read-out: N. gonorrhoeae MIC.
The next data set has as its system S. aureus. The data set is described as follows: MIC (Table 2B). The conditions noted are these: Staphylococcus aureus, strain not given. It is filed as cell-based.
Data set [1] is described as follows: Single dose PK (IV and PO). It is filed as in vivo. As to conditions: mice, 10 mg/kg IV or IP, within 6 h, serum; 10 mg/kg.
The next data set concerns 36 mammalian receptors. Type of data set: binding. As to conditions: 10 μM; every receptor of the panel.

With `O=C(Nc1nnc(C2CCCCC2)o1)c1ccc(Oc2cccc(O)c2)cc1` [compound 4801], the MIC (as a rule, the least concentration at which growth counts as inhibited) in the data set with N. gonorrhoeae (Table 2B, strain not given) was 0.19 µg/mL (≈ 0.501 µM); against S. aureus it was 2.98 µg/mL (≈ 7.85 µM).

On to `O=C(Nc1nnc(-c2ccc(F)cc2)o1)c1ccc(Cl)cc1` [KKL-35], for which the “detectable material after dosing (preliminary PK)” value in data set [1] is recorded as “no detectable material; also recorded: undetectable”.

As to `O=C(Nc1nnc(-c2ccc(F)cc2)o1)c1ccc(N2CCC2)cc1` [compound 5910], the MIC in the data set on N. gonorrhoeae (Table 2B, strain not given) was found to be 4.23 µg/mL (≈ 12.5 µM); in the data set with S. aureus it was 18.9 µg/mL (≈ 55.9 µM).

With `Cc1ccc(C(=O)Nc2nnc(-c3ccc(N4CCC4)cc3)o2)cc1C` [3999A], the MIC in the data set with N. gonorrhoeae (Table 2B, strain not given) stood at 0.087 µg/mL (≈ 0.25 µM); in the data set with S. aureus, 0.68 µg/mL (≈ 1.95 µM).

As for `O=C(Nc1nnc(-c2ccccc2O)o1)c1ccc(Oc2cccc(O)c2)cc1` [compound 6205], the MIC in the data set on N. gonorrhoeae (Table 2B, strain not given) came out at 0.3 µg/mL (≈ 0.77 µM); against S. aureus, 1.71 µg/mL (≈ 4.39 µM).

`COc1c(F)cccc1-c1nnc(NC(=O)c2ccc(Oc3cncc(C)n3)cc2)o1` [compound 6983]: the minimal inhibitory concentration (MIC) turned out to be 9.7 µg/mL (≈ 23 µM) in the data set on N. gonorrhoeae (Table 2B, strain not given) and 21.1 µg/mL (≈ 50.1 µM) with S. aureus.

Turning to `CC(Oc1ccc(C(=O)Nc2nnc(-c3ccc(F)cc3)o2)cc1)c1ccccc1` (stereo not shown) [compound 4357], the MIC with N. gonorrhoeae (Table 2B, strain not given) turned out to be 0.2 µg/mL (≈ 0.496 µM).

`Cc1ccc(Oc2ccc(C(=O)Nc3nnc(-c4ccc(F)cc4)o3)cc2)cc1` [compound 4305]: the MIC with N. gonorrhoeae (Table 2B, strain not given) came to 0.048 µg/mL (≈ 0.123 µM); with S. aureus, 0.03 µg/mL (≈ 0.077 µM).

Turning to `COc1cccc(Oc2ccc(C(=O)Nc3nnc(-c4ccc(F)cc4)o3)cc2)c1` [compound 4309], the minimal inhibitory concentration (MIC) with N. gonorrhoeae (Table 2B, strain not given) was determined as 0.1 µg/mL (≈ 0.247 µM); in the data set on S. aureus, 0.63 µg/mL (≈ 1.55 µM).

For the compound `N#Cc1nnc(NC(=O)c2ccc(Oc3ccccc3)nc2)o1` [compound 5834], in the data set with N. gonorrhoeae (Table 2B, strain not given), the MIC is 20.3 µg/mL (≈ 66.1 µM).

With `O=C(Nc1nnc(-c2ccc(F)cc2)o1)c1ccc(Oc2ccccc2)nc1` [compound 4237, 2-(6-phenoxynicotinamido)-5-(4-fluorophenyl)-1,3,4-oxadiazole], in the data set on 36 mammalian receptors, the “inhibition of the 36 mammalian receptors” value is listed as less than 50%.

For `COc1ccc(Oc2ccc(C(=O)Nc3nnc(-c4ccc(F)cc4)o3)cc2)cc1` [compound 4310], the MIC was found to be 0.05 µg/mL (≈ 0.123 µM) with N. gonorrhoeae (Table 2B, strain not given) and 0.631 µg/mL (≈ 1.56 µM) against S. aureus.

Consider `O=C(Nc1nnc(C2(O)CCCCC2)o1)c1ccc(Oc2ccccc2)nc1` [compound 5793], for which, in the data set with N. gonorrhoeae (Table 2B, strain not given), the MIC came to 38 µg/mL (≈ 99.9 µM).

Compound `O=C(Nc1nnc(-c2ccc(F)cc2)o1)c1ccc(OC2CCCC2)cc1` [compound 4293] showed an MIC in the data set with S. aureus of 0.28 µg/mL (≈ 0.762 µM).

On to `CN(C(=O)c1ccc(Cl)cc1)c1nnc(-c2ccc(F)cc2)o1` [compound 4076], for which the MIC turned out to be 2.07 µg/mL (≈ 6.24 µM) in the data set with N. gonorrhoeae (Table 2B, strain not given) and 8.27 µg/mL (≈ 24.9 µM) against S. aureus.

With `O=C(Nc1nnc(-c2ccc(F)cc2)o1)c1ccc(Oc2cccc(O)c2)cc1` [compound 4304], the MIC with N. gonorrhoeae (Table 2B, strain not given) stood at 0.39 µg/mL (≈ 0.997 µM); against S. aureus, 3.07 µg/mL (≈ 7.84 µM).

As to `Nc1ccc(C(=O)Nc2nnc(-c3ccc(F)cc3)o2)cc1` [compound 5804], the MIC in the data set on N. gonorrhoeae was determined as 18.8 µg/mL (≈ 63 µM).

Regarding `Cc1cc(C)cc(Oc2ccc(C(=O)Nc3nnc(-c4ccc(F)cc4)o3)cc2)c1` [compound 4308], the minimum inhibitory concentration (MIC) with N. gonorrhoeae (Table 2B, strain not given) stood at 0.079 µg/mL (≈ 0.196 µM); with S. aureus, 0.314 µg/mL (≈ 0.778 µM).

In turn, `O=C(Nc1nnc(-c2ccc(F)cc2)o1)c1ccc(S(=O)(=O)c2ccccc2)cc1` [compound 4257] gave a minimal inhibitory concentration (MIC) in the data set on S. aureus of 2.64 µg/mL (≈ 6.23 µM).

In the case of `Cc1cccc(Oc2ccc(C(=O)Nc3nnc(-c4ccc(F)cc4)o3)cc2)c1` [compound 4306], the MIC with N. gonorrhoeae (Table 2B, strain not given) worked out at 0.048 µg/mL (≈ 0.123 µM); against S. aureus it was 0.03 µg/mL (≈ 0.077 µM).

Regarding `O=C(Nc1nnc(C2CCCCC2)o1)c1ccc(Oc2ccccc2)nc1` [compound 4780], the MIC in the data set with N. gonorrhoeae (Table 2B, strain not given) was found to be 0.36 µg/mL (≈ 0.988 µM); against S. aureus it was 3.61 µg/mL (≈ 9.91 µM).

For `Cc1cncc(Oc2ccc(C(=O)Nc3nnc(C4CC5CCC4C5)o3)cc2)n1` (stereo not shown) [compound 6282], the MIC with N. gonorrhoeae (Table 2B, strain not given) was determined as 1.37 µg/mL (≈ 3.5 µM); against S. aureus it was 6.9 µg/mL (≈ 17.6 µM).

Turning to `Cc1ccccc1Oc1ccc(C(=O)Nc2nnc(-c3ccc(F)cc3)o2)cc1` [compound 4307], the MIC with N. gonorrhoeae (Table 2B, strain not given) stood at 0.09 µg/mL (≈ 0.231 µM); with S. aureus, 0.61 µg/mL (≈ 1.57 µM).

As for `O=C(Nc1nnc(C2CCCCC2)o1)c1ccc(OC2CCCCC2)nc1` [compound 4925], in the data set on N. gonorrhoeae (Table 2B, strain not given), the MIC came to 0.14 µg/mL (≈ 0.378 µM).

In the case of `O=C(Nc1nnc(-c2cc(F)ccc2O)o1)c1ccc(Oc2cccc(O)c2)cc1` [compound 6977], the MIC is 0.21 µg/mL (≈ 0.516 µM) with N. gonorrhoeae (Table 2B, strain not given) and 0.6 µg/mL (≈ 1.47 µM) in the data set on S. aureus.

For the compound `O=C(Nc1nnc(C2COc3ccccc3O2)o1)c1ccc(Oc2ccccc2)nc1` (stereo not shown) [compound 4770], the MIC in the data set on N. gonorrhoeae (Table 2B, strain not given) came out at 3.33 µg/mL (≈ 8 µM); against S. aureus, 7.36 µg/mL (≈ 17.7 µM).

Turning to `O=C(Nc1nnc(-c2ccc(F)cc2)o1)c1ccc2c(c1)ncn2-c1ccccc1` [compound 4311], the MIC with N. gonorrhoeae (Table 2B, strain not given) was 2.49 µg/mL (≈ 6.23 µM).

In the case of `O=C(Nc1nnc(C2CC3CCC2C3)o1)c1ccc(Oc2ccccc2)nc1` (stereo not shown) [compound 5246], the minimum inhibitory concentration (MIC) is 0.16 µg/mL (≈ 0.425 µM) in the data set on N. gonorrhoeae (Table 2B, strain not given) and 4.71 µg/mL (≈ 12.5 µM) against S. aureus.

Regarding `O=C(Nc1nnc(C2CC3CCC2C3)o1)c1ccc(OC2CCN(CC(F)(F)F)CC2)cc1` (stereo not shown) [compound 6211], the minimum inhibitory concentration (MIC) was 1.29 µg/mL (≈ 2.78 µM) in the data set on N. gonorrhoeae (Table 2B, strain not given) and 5.8 µg/mL (≈ 12.5 µM) with S. aureus.

With `O=C(Nc1nnc(C2CCCC2)o1)c1ccc(Oc2ccccc2)nc1` [compound 4470], the MIC in the data set on N. gonorrhoeae (Table 2B, strain not given) came to 0.35 µg/mL (≈ 0.999 µM); with S. aureus it was 4.37 µg/mL (≈ 12.5 µM).

Turning to `O=C(Nc1nnc(-c2ccc(F)cc2)o1)c1ccc(Cl)s1` [compound 3653], the minimal inhibitory concentration (MIC) in the data set with N. gonorrhoeae (Table 2B, strain not given) is 0.32 µg/mL (≈ 0.988 µM).

In the case of `O=C(Nc1nnc(-c2cccc(O)c2)o1)c1ccc(Oc2cccc(O)c2)cc1` [compound 6236], the minimal inhibitory concentration (MIC) in the data set with N. gonorrhoeae (Table 2B, strain not given) came out at 4.86 µg/mL (≈ 12.5 µM); in the data set on S. aureus, 19.4 µg/mL (≈ 49.8 µM).

For `Cc1cccc(-c2nnc(NC(=O)c3ccc(Oc4ccccc4)nc3)o2)c1` [compound 4499], the MIC in the data set with N. gonorrhoeae (Table 2B, strain not given) came out at 0.18 µg/mL (≈ 0.483 µM); against S. aureus, 0.92 µg/mL (≈ 2.47 µM).

As for `O=C(Nc1nnc(-c2ccccc2O)o1)c1ccc(Oc2ccccc2)nc1` [5939A], the MIC in the data set with N. gonorrhoeae (Table 2B, strain not given) is 0.82 µg/mL (≈ 2.19 µM); in the data set on S. aureus it was 1.4 µg/mL (≈ 3.74 µM).

For `CCC(c1ccccc1)c1nnc(NC(=O)c2ccc(Oc3ccccc3)nc2)o1` (stereo not shown) [compound 4804], the MIC in the data set with N. gonorrhoeae (Table 2B, strain not given) was 0.63 µg/mL (≈ 1.57 µM).

For `O=C(Nc1nnc(Cc2ccc(F)cc2)o1)c1ccc(Oc2ccccc2)nc1` [compound 4802], the MIC with N. gonorrhoeae (Table 2B, strain not given) turned out to be 1.56 µg/mL (≈ 4 µM).

Consider `O=C(Nc1nnc(-c2cccc(F)c2O)o1)c1ccc(Oc2cccc(O)c2)cc1` [compound 6976], for which the MIC with N. gonorrhoeae (Table 2B, strain not given) came out at 1.91 µg/mL (≈ 4.69 µM); with S. aureus, 2.5 µg/mL (≈ 6.14 µM).
